From US7662994B2, “Method for the preparation of crystalline dexloxiglumide and products obtained” (Rottapharm S.p.A., priority 2003, dated 2010)

Columns and labels:
[1] = Particle size distribution by laser light scattering (Malvern Master Sizer 2000, wet method); type: physicochemical; details: for span index: (D90-D10)/D50 type width of distribution; for D50 (mean size measurement) / percentage of particles <10 μm (fine particles): wet method, H2O with 0.5% Tween 20, sonication 60 sec
Procedure: The PSD is determined by the “laser light scattering” technique, that is, the scattering (diffraction) which a high-energy, monochromatic light beam (a laser beam) undergoes when it encounters a particle of a particular size on its optical path. The powder to be examined may be prepared by various techniques, both dry and wet; in the latter case, the selection of the dispersant should take account of the chemical/physical properties of the raw material to be analyzed. Once the sample has been analyzed, the results can be given as histograms in which each individual column represents a band of a certain width (in microns), whereas the height represents the percentage of sample present in that band. The principal statistical distribution values calculated by the software of this apparatus are, amongst other things, the D50, that is, the size in microns for which 50% of the sample is smaller and 50% is larger. Another important measurement is the “span”, which is the measurement of the width of the distribution. This width is calculated by the following ratio: [formula] where D90 and D10 have meanings analogous to that of D50. The smaller this “span” index is, the more reliable the particle distribution of the sample examined will be. The apparatus used for the determination of the PSD was a Malvern Master Sizer 2000 and the method used was the wet method with the use of H2O as the dispersant with a concentration of 0.5% of Tween 20 as surfactant. The measurements were taken at a concentration of dexloxiglumide of about 0.06-0.08% after ultrasound sonication for 60 sec which enabled the accumulations to be broken up without breaking the crystals. Note: The particle sizes given both in the text and in the claims are not absolute quantities but are relative to the measurement method used (in this case the Malvern Master Sizer 2000 instrument with the method described in Example 1).

[2] = Compressibility of the powder (Carr index, USP 24/NF19); type: physicochemical; details: 100 g powder, 250 ml graduated cylinder, 2000 strokes; percentage values 5-15 excellent, >33 very poor
Procedure: a) measurement of the compressibility of the powder which is expressed by the following formula (Carr index; (according to USP 24/NF19, p. 1914): [formula] where Vo and Vf are respectively the volumes occupied by a predetermined weighed quantity of powder (generally 100 g) placed in a 250 ml graduated cylinder and measured before and after a certain number of mechanical strokes (generally 2000 strokes); the smaller this index is the better will be the behaviour of the powder upon compression; for example, percentage values between 5-15 are considered excellent, whereas values greater than 33 are considered very poor (see J. I. Wells—Pharmaceutical Preformulation; Ellis H. Lim; J. Wiley and Sons Ed. p.

[3] = Morphological analysis of the crystals by microscopy (300x); type: physicochemical; details: photographs, 300x magnification
Procedure: Morphological analysis performed by microscopic analysis of the crystals obtained by crystallization from ethanol/H2O and isopropyl ether, respectively, also confirms what had already been seen with by particle-size analysis by laser-beam diffraction.
It can be seen from a comparison of the two images of FIG. 2 that the product crystallized from isopropyl ether has crystals with well-defined, lamellar shapes with an average diameter of about 70-100 μm, whereas the other lot has crystals of irregular shape with very many smaller aggregated crystals.

[4] = target: T1, type-1 cholecystokinin (CCK1) receptor (Homo sapiens, UniProt P32238); details: cited from earlier work
T1 sequence (P32238 1-428): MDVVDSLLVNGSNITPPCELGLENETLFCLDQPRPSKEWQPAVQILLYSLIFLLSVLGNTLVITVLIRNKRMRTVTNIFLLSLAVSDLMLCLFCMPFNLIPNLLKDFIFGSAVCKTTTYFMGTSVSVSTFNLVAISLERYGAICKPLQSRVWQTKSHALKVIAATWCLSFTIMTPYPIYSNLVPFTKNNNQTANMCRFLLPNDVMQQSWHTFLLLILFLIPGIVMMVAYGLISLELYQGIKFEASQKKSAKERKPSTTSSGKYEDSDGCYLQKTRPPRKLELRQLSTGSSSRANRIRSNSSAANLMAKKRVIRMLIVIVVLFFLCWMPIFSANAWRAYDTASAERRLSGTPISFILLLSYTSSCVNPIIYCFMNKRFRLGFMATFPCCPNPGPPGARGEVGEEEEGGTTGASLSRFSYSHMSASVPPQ

SMILES	shape of particle distribution [1]	span index [1]	D50 (mean size measurement) [1]	percentage of particles <10 μm (fine particles) [1]	Carr index [2]	average diameter of crystals [3]	antagonistic activity towards CCK1 receptor [4]
CCCCCN(CCCOC)C(=O)[C@@H](CCC(=O)O)NC(=O)c1ccc(Cl)c(Cl)c1 [dexloxiglumide obtained by crystallization from H2O/ethanol ] [(R)-4-[(3,4-dichlorobenzoyl)amino]-5-[(3-methoxypropyl)-pentylamino]-5-oxo-pentanoic acid, reference compound]	bimodal	4.668	23.6 μm	29.5%	> 33		
CCCCCN(CCCOC)C(=O)[C@@H](CCC(=O)O)NC(=O)c1ccc(Cl)c(Cl)c1 [lot PP9282/43851, (R)-4-[(3,4-dichlorobenzoyl)amino]-5-[(3-methoxypropyl)-pentylamino]-5-oxo-pentanoic acid]	practically unimodal	1.608	97.3 μm	4.23%	about 12	70-100 μm	
CCCCCN(CCCOC)C(=O)[C@@H](CCC(=O)O)NC(=O)c1ccc(Cl)c(Cl)c1 [Dexloxiglumide, (R)-4-[(3,4-dichlorobenzoyl)amino]-5-[(3-methoxypropyl)-pentylamino]-5-oxo-pentanoic acid]							potent antagonistic activity
